Assay results as given in publication PMC4851326, “Pharmacologic Comparison of Clinical Neutral Endopeptidase Inhibitors in a Rat Model of Acute Secretory Diarrhea” (The Journal of Pharmacology and Experimental Therapeutics, 2016).

Legend:
NEP [1] = target: T1, NEP (Homo sapiens, UniProt P08473); test: Purified peptidase assay, NEP; assay type: biochemical
T1 construct: purchased R&D Systems (Minneapolis, MN)
Description: Purified recombinant human enzymes were purchased from R&D Systems (Minneapolis, MN). […] Each substrate was diluted to 100 μM in the assay buffer recommended for each enzyme by the supplier. […] To these, 5 μl of diluted enzyme was added, followed by 10 μl of the quenched peptide substrate. The plates were incubated at 37°C until at least 10% substrate turnover or 5 μM product had formed. Fluorescence was measured using a Tecan Safire II (Excitation 320 nm/Emission 420 nm). Each plate included a standard curve of reaction product and positive (no enzyme) and negative (dimethyl sulfoxide vehicle) controls. Dose-response data were plotted and inhibition values (IC50) determined by linear regression analysis using GraphPad Prism (GraphPad Software, La Jolla, CA).

[2] = tested on: castor oil–induced diarrhea; test: Castor oil–induced diarrhea model; assay type: in vivo, rat
Description: Experiments were performed with 6-to-7-week-old male Wistar rats obtained from Charles River Laboratories (Wilmington, MA). All animals were housed in Saint Louis University facilities under controlled conditions of temperature, humidity, and a 12-hour light/dark cycle. They were maintained on standard rodent chow with free access to water. Animal care and all procedures were performed in accordance with the National Institutes of Health Guide for the Care and Use of Laboratory Animals and approved by the university’s institutional animal care and use committee.
Animals were weighed and individually housed in metabolic cages containing white paper underneath to collect feces. Test compounds or vehicles were administered by oral gavage (5 ml/kg), and then at indicated times, 10 ml/kg body weight of 100% castor oil was administered by oral gavage to induce diarrhea. Animals had access to food within 5 minutes. Stool weight was recorded starting 15 minutes after castor oil administration and repeated every 15 minutes up to 4 hours. […] After 4 hours, animals were euthanized with CO2, and blood and tissues were collected for analyses.

NEP [3] = target: T2, NEP (Rattus norvegicus, UniProt P07861); test: NEP enzyme activity in tissues after oral treatment; assay type: in vivo; conditions: normal rats; for Relative NEP inhibition, duodenum / Relative NEP inhibition, jejunum / Relative NEP inhibition, kidney / Relative NEP inhibition, lung: vs vehicle
T2 construct: NEP enzyme activity was measured in tissue homogenates; from tissue; host or cells: Wistar rat kidney, lung, duodenum, jejunum homogenates
T2 sequence (P07861 1-750): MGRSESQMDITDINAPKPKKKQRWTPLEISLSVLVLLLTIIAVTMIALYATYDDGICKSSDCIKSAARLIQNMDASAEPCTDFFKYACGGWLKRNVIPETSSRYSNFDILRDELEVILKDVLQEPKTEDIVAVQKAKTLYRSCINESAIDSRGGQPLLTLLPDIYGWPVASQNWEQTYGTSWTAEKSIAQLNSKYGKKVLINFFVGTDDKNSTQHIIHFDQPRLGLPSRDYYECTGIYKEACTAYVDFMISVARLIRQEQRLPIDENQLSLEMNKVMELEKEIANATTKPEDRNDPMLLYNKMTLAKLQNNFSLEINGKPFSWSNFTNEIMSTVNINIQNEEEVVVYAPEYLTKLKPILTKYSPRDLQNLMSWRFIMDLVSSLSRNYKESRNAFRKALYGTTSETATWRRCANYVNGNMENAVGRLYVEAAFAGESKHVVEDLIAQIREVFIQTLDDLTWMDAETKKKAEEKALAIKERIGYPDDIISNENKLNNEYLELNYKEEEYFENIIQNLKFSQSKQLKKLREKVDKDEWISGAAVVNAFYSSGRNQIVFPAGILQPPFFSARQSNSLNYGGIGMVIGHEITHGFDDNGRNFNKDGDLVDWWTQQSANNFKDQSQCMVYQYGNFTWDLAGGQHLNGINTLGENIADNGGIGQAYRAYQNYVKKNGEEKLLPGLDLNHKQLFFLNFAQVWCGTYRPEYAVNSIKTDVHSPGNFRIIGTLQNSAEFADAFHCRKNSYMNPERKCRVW
Description: Four or five 2-mm Zirconia beads (Biospec, Bartlesville, OK) were added to fresh weighed tissue specimens (50–250 mg). Assay buffer consisting of 50 mM Tris-HCl (pH 7.4), 200 mM NaCl, and 0.05% TritonX-100 was added (4 μl/mg), and the sample was homogenized for 1 minute using a bead beater (Biospec). Stored frozen homogenates were thawed at room temperature and centrifuged 10 minutes at 18,000g, and the protein concentration was determined for each supernatant. […] NEP substrate 2Abz-dArg-Gly-Leu-C2-Dnp (American Peptide, Sunnyvale, CA) was prepared at 1 mM in 20% acetonitrile/water and diluted to 100 μM in assay buffer, and 10 μl was dispensed to homogenate-containing wells. […] Kinetic data were plotted to determine the rate of product formation by linear regression with interpolation against a standard curve, and the rate was normalized to protein concentration.

intestinal motility = test: Charcoal meal model of intestinal motility; assay type: in vivo, rat; conditions: 30 minutes before charcoal meal, distance traveled in 20 minutes
Description: Rats were fasted for 18 hours before the experiment, with free access to water. Animals were weighed, and vehicle or compounds were administered by oral gavage. […] After 30 minutes, each animal received standard charcoal meal (10% suspension of activated charcoal in 5% gum arabic) by oral gavage (5 ml/kg). Animals were given access to food within 1 minute and sacrificed 20 minutes after the charcoal meal. The intestines were carefully removed. Motility was calculated as the measured distance traveled by the charcoal as a percentage of total length from pyloric sphincter to ileocecal junction.

[4] = 1 h after single oral dose (Race 100, Candox 150, Sac 100, UK 100 mg/kg)
[5] = 5 h after single oral dose (Race 100, Candox 150, Sac 100, UK 100 mg/kg)

T1 sequence (P08473 whole entry): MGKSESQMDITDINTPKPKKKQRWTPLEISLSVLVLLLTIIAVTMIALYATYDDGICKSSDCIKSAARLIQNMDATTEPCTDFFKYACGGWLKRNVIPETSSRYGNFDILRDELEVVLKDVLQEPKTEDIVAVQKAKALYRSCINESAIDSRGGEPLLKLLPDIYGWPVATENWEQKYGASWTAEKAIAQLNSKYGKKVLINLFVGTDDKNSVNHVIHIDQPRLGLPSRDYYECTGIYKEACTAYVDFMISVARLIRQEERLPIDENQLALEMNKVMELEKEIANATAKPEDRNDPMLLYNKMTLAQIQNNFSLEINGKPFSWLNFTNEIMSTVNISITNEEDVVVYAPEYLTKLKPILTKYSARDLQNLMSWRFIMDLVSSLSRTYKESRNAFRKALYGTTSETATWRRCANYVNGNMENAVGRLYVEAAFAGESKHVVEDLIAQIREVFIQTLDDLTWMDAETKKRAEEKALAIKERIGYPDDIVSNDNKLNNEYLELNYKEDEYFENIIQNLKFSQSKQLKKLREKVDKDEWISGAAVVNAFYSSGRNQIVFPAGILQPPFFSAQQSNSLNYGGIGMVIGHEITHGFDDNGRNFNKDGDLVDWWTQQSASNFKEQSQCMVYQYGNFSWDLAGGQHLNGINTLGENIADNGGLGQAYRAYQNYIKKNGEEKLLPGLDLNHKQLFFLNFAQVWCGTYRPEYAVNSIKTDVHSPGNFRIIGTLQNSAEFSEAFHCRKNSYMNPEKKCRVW

## COCCOC[C@H](CC1(C(=O)N[C@H]2CC[C@@H](C(=O)O)CC2)CCCC1)C(=O)O [Candoxatrilat, candoxatrilat]
NEP [1]; recombinant purified human enzyme, for prodrugs the active form was tested
  IC50: < 100 nM
NEP [1]; versus panel of ACE, ECE-1, ECE-2, IDE, APN, PSA
  NEP selectivity over the other peptidases: > 60 fold

## CC(=O)SCC(Cc1ccccc1)C(=O)NCC(=O)OCc1ccccc1 (centres unmarked) [Racecadotril]
[2]; 100 mg/kg oral 150 or 240 minutes before castor oil (Fig. 4B, 4C)
  Stool output, 150 or 240 minutes predosing: Neither drug was effective
[2]; dose-response study (Fig. 2A), 30 minutes before castor oil, sacubitril at highest tested dose, racecadotril 100 mg/kg
  Incidence of diarrhea: 100%
[2]; single oral dose 30 minutes before castor oil, fasted rats, vs vehicle (Fig. 1)
  Cumulative stool output over 4 hours: significantly reduced
[2]; single oral treatment with varying doses (racecadotril 100 mg/kg) 30 minutes before castor oil (Fig. 2A, 2C)
  Stool output, dose-response studies: significantly reduced stool output
NEP [3]; [4]
  Relative NEP inhibition, duodenum: 98%
  Relative NEP inhibition, jejunum: 90%
  Relative NEP inhibition, kidney: 56%
  Relative NEP inhibition, lung: 75%
NEP [3]; 1 hour after single oral 100 mg/kg dose (Fig. 3A, B)
  NEP enzyme activity in duodenum and jejunum: barely detectable levels
NEP [3]; [5]
  Relative NEP inhibition, duodenum: 85%
  Relative NEP inhibition, jejunum: 32%
  Relative NEP inhibition, kidney: 39%
  Relative NEP inhibition, lung: 59%
NEP [3]; 24 hours after single oral 100 mg/kg dose (Fig. 3C, D)
  NEP inhibition in lung and kidney tissue after 24 hours: returned to normal
Intestinal motility; oral, dose not given (Fig. 5)
  Effect on intestinal transit (charcoal meal test): no effect

## CCOC(=O)[C@H](C)C[C@@H](Cc1ccc(-c2ccccc2)cc1)NC(=O)CCC(=O)O [Sacubitril, 4-(((2S,4R)-1-([1,1′-biphenyl]-4-yl)-5-ethoxy-4-methyl-5-oxopentan-2-yl)amino)-4-oxobutanoic acid]
Intestinal motility; 30 mg/kg oral
  Effect on intestinal transit (charcoal meal test): no effect
Intestinal motility; 100 mg/kg oral
  Effect on intestinal transit (charcoal meal test): significant but very modest effect

## CN(C)C(=O)C(CCN1CCC(O)(c2ccc(Cl)cc2)CC1)(c1ccccc1)c1ccccc1 [loperamide]
Intestinal motility; oral, dose not given (Fig. 5)
  Effect on intestinal transit (charcoal meal test): greatly slowed transit
